From PubChem BioAssay (NCI)
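Tested at 5 concentrations; 48 h exposure; 96-well plates; endpoints linearly interpolated, else capped at highest concentration. GI50 marks 50% less growth. TGI denotes the concentration required for complete inhibition of growth.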

Tests used:
Experiment in all cases: NCI-60 cell line screen, 48 h
SK-OV-3 ovarian = test system: SK-OV-3 ovarian
HOP-92 NSCLC = test system: HOP-92 NSCLC
UO-31 renal = test system: UO-31 renal
MDA-MB-231 breast = test system: MDA-MB-231 breast
K-562 leukemia = test system: K-562 leukemia
SK-MEL-5 melanoma = test system: SK-MEL-5 melanoma
OVCAR-8 ovarian = test system: OVCAR-8 ovarian
OVCAR-3 ovarian = test system: OVCAR-3 ovarian
SR leukemia = test system: SR leukemia
TK-10 renal = test system: TK-10 renal
A549 NSCLC = test system: A549 NSCLC
DU-145 prostate = test system: DU-145 prostate
OVCAR-5 ovarian = test system: OVCAR-5 ovarian
NCI-H23 lung = test system: NCI-H23 lung
NCI/ADR-RES ovarian = test system: NCI/ADR-RES ovarian
UACC-62 melanoma = test system: UACC-62 melanoma
NCI-H522 lung = test system: NCI-H522 lung
MCF7 breast = test system: MCF7 breast
RPMI-8226 leukemia = test system: RPMI-8226 leukemia
T-47D breast = test system: T-47D breast
M14 melanoma = test system: M14 melanoma
HL-60(TB) leukemia = test system: HL-60(TB) leukemia
SK-MEL-2 melanoma = test system: SK-MEL-2 melanoma
MALME-3M melanoma = test system: MALME-3M melanoma
RXF 393 renal = test system: RXF 393 renal
HS 578T breast = test system: HS 578T breast
SW-620 colon = test system: SW-620 colon
SN12C renal = test system: SN12C renal
OVCAR-4 ovarian = test system: OVCAR-4 ovarian
SK-MEL-28 melanoma = test system: SK-MEL-28 melanoma
HOP-62 NSCLC = test system: HOP-62 NSCLC
HCC-2998 colon = test system: HCC-2998 colon
BT-549 breast = test system: BT-549 breast
ACHN renal = test system: ACHN renal
CCRF-CEM leukemia = test system: CCRF-CEM leukemia
NCI-H460 lung = test system: NCI-H460 lung
SF-539 CNS = test system: SF-539 CNS
MOLT-4 leukemia = test system: MOLT-4 leukemia
HCT-15 colon = test system: HCT-15 colon
MDA-MB-435 = test system: MDA-MB-435
IGROV1 ovarian = test system: IGROV1 ovarian
LOX IMVI melanoma = test system: LOX IMVI melanoma
U251 CNS = test system: U251 CNS
A498 renal = test system: A498 renal
SNB-75 CNS = test system: SNB-75 CNS
COLO 205 colon = test system: COLO 205 colon
SF-268 CNS = test system: SF-268 CNS
KM12 colon = test system: KM12 colon
UACC-257 melanoma = test system: UACC-257 melanoma
SNB-19 CNS = test system: SNB-19 CNS
HCT-116 colon = test system: HCT-116 colon
SF-295 CNS = test system: SF-295 CNS
PC-3 prostate = test system: PC-3 prostate
HT29 colon = test system: HT29 colon
NCI-H226 lung = test system: NCI-H226 lung
786-0 renal = test system: 786-0 renal

Cc1ccc(S(=O)(=O)Oc2ccc3c4c(c(=O)oc3c2)CCCCCC4)cc1
GI50 (SK-OV-3 ovarian): > 100 µM | TGI (SK-OV-3 ovarian): > 100 µM | GI50 (HOP-92 NSCLC): 1.34 µM | TGI (HOP-92 NSCLC): > 100 µM | GI50 (UO-31 renal): 27.3 µM | TGI (UO-31 renal): > 100 µM | GI50 (MDA-MB-231 breast): > 100 µM | TGI (MDA-MB-231 breast): > 100 µM | GI50 (K-562 leukemia): 3.88 µM | TGI (K-562 leukemia): > 100 µM | GI50 (SK-MEL-5 melanoma): 4.45 µM | TGI (SK-MEL-5 melanoma): > 100 µM | GI50 (OVCAR-8 ovarian): > 100 µM | TGI (OVCAR-8 ovarian): > 100 µM | GI50 (OVCAR-3 ovarian): > 100 µM | TGI (OVCAR-3 ovarian): > 100 µM | GI50 (SR leukemia): 5.66 µM | TGI (SR leukemia): > 100 µM | GI50 (TK-10 renal): > 100 µM | TGI (TK-10 renal): > 100 µM | GI50 (A549 NSCLC): > 100 µM | TGI (A549 NSCLC): > 100 µM | GI50 (DU-145 prostate): > 100 µM | TGI (DU-145 prostate): > 100 µM | GI50 (OVCAR-5 ovarian): > 100 µM | TGI (OVCAR-5 ovarian): > 100 µM | GI50 (NCI-H23 lung): > 100 µM | TGI (NCI-H23 lung): > 100 µM | GI50 (NCI/ADR-RES ovarian): 5.08 µM | TGI (NCI/ADR-RES ovarian): > 100 µM | GI50 (UACC-62 melanoma): > 100 µM | TGI (UACC-62 melanoma): > 100 µM | GI50 (NCI-H522 lung): > 100 µM | TGI (NCI-H522 lung): > 100 µM | GI50 (MCF7 breast): > 100 µM | TGI (MCF7 breast): > 100 µM | GI50 (RPMI-8226 leukemia): 2.33 µM | TGI (RPMI-8226 leukemia): > 100 µM | GI50 (T-47D breast): 5.05 µM | TGI (T-47D breast): > 100 µM | GI50 (M14 melanoma): > 100 µM | TGI (M14 melanoma): > 100 µM | GI50 (HL-60(TB) leukemia): 7.17 µM | TGI (HL-60(TB) leukemia): > 100 µM | GI50 (SK-MEL-2 melanoma): 75 µM | TGI (SK-MEL-2 melanoma): > 100 µM | GI50 (MALME-3M melanoma): > 100 µM | TGI (MALME-3M melanoma): > 100 µM | GI50 (RXF 393 renal): > 100 µM | TGI (RXF 393 renal): > 100 µM | GI50 (HS 578T breast): > 100 µM | TGI (HS 578T breast): > 100 µM | GI50 (SW-620 colon): 2.76 µM | TGI (SW-620 colon): > 100 µM | GI50 (SN12C renal): > 100 µM | TGI (SN12C renal): > 100 µM | GI50 (OVCAR-4 ovarian): > 100 µM | TGI (OVCAR-4 ovarian): > 100 µM | GI50 (SK-MEL-28 melanoma): > 100 µM | TGI (SK-MEL-28 melanoma): > 100 µM | GI50 (HOP-62 NSCLC): > 100 µM | TGI (HOP-62 NSCLC): > 100 µM | GI50 (HCC-2998 colon): > 100 µM | TGI (HCC-2998 colon): > 100 µM | GI50 (BT-549 breast): > 100 µM | TGI (BT-549 breast): > 100 µM | GI50 (ACHN renal): > 100 µM | TGI (ACHN renal): > 100 µM | GI50 (CCRF-CEM leukemia): 8.92 µM | TGI (CCRF-CEM leukemia): > 100 µM | GI50 (NCI-H460 lung): > 100 µM | TGI (NCI-H460 lung): > 100 µM | GI50 (SF-539 CNS): > 100 µM | TGI (SF-539 CNS): > 100 µM | GI50 (MOLT-4 leukemia): 9.57 µM | TGI (MOLT-4 leukemia): > 100 µM | GI50 (HCT-15 colon): 3.16 µM | TGI (HCT-15 colon): > 100 µM | GI50 (MDA-MB-435): > 100 µM | TGI (MDA-MB-435): > 100 µM | GI50 (IGROV1 ovarian): > 100 µM | TGI (IGROV1 ovarian): > 100 µM | GI50 (LOX IMVI melanoma): > 100 µM | TGI (LOX IMVI melanoma): > 100 µM | GI50 (U251 CNS): > 100 µM | TGI (U251 CNS): > 100 µM | GI50 (A498 renal): 4.43 µM | TGI (A498 renal): > 100 µM | GI50 (SNB-75 CNS): > 100 µM | TGI (SNB-75 CNS): > 100 µM | GI50 (COLO 205 colon): 2.92 µM | TGI (COLO 205 colon): > 100 µM | GI50 (SF-268 CNS): > 100 µM | TGI (SF-268 CNS): > 100 µM | GI50 (KM12 colon): 4.78 µM | TGI (KM12 colon): > 100 µM | GI50 (UACC-257 melanoma): 8.7 µM | TGI (UACC-257 melanoma): > 100 µM | GI50 (SNB-19 CNS): > 100 µM | TGI (SNB-19 CNS): > 100 µM | GI50 (HCT-116 colon): 8.04 µM | TGI (HCT-116 colon): > 100 µM | GI50 (SF-295 CNS): > 100 µM | TGI (SF-295 CNS): > 100 µM | GI50 (PC-3 prostate): 5.97 µM | TGI (PC-3 prostate): > 100 µM | GI50 (HT29 colon): 0.531 µM | TGI (HT29 colon): > 100 µM | GI50 (NCI-H226 lung): 8.31 µM | TGI (NCI-H226 lung): > 100 µM | GI50 (786-0 renal): > 100 µM | TGI (786-0 renal): > 100 µM
